Measurements from patent publication US9278994B2, “Short antimicrobial lipopeptides” (Helix BioMedix Inc., priority 2012, dated 2016).
≈ marks a conversion by molar mass, not a printed value. Where a SMILES comes first, the peptide text is derived from it. [ ]: non-standard residue; d: D form. The star is where a group is joined. Palmitoyl = CCCCCCCCCCCCCCCC(=O)*

How the values were obtained:
[1] = tested on: C. albicans 105
Experimental: (§1) We conducted the minimal inhibitory concentration (MIC) determination using CLSI (Clinical and Laboratory standard Institute) recommended standard protocol for antimicrobials (Methods for Dilution Antimicrobial Susceptibility Tests for Bacteria That Grow Aerobically; Approved Standard—Ninth Edition).
(§2) 2. Bacterial strains and culture conditions. E. coli UB1005, S. aureus SAP0017 (MRSA) and C. albicans 105 were grown in Mueller Hinton (MH) (Difco, BD Biosciences, MD) agar plates and broth (2 g of beef extract, 17.5 g of acid hydrolysis of casein and 1.5 g of starch per liter) at 37° C. unless otherwise indicated. Bacteria from frozen stock were subcultured onto freshly made MH agar plates prior to susceptibility testing. For P. acnes, the bacterium was grown in BBL™ Brain-Heart infusion (Becton, Dickinson & Company, Sparks Md.) broth or agar plates at 37° C. in anaerobic condition generated using a anaerobic jar and AnaeroGen™ (Oxoid, Basingstoke, Hampshire, England).
(§3) 3. […] The minimal inhibitory concentration (MIC) of each peptide was determined using modified CLSI microtiter broth dilution assay (Methods for Dilution Antimicrobial Susceptibility Tests for Bacteria That Grow Aerobically; Approved Standard—Ninth Edition). An inoculum of 10^5-10^6 colony forming units (CFU)/ml was used or 10^4 CFU/ml for yeast. The MIC value was taken as the lowest peptide concentration at which more than 90% of microbial growth was inhibited after 15 to 20 h of incubation at 37° C. For P. acnes, the incubation was kept under anaerobic condition at 37° C. for 2 weeks before MIC was determined Kill kinetics was performed using a given concentration (about 2-5-fold MIC) of peptide mixed with indicator microorganism. After appropriate dilution the cells were plated on agar plates after defined time intervals and incubated at 37° C. overnight. In the case of P. acnes an extended incubation period was required. The CFU was counted and plotted as survival of bacteria after peptide treatment over time, which indicates the effectiveness of a peptide to kill a microbe.

[2] = tested on: E. coli UB1005
Experimental: as §1, §2, §3

[3] = tested on: S. aureus SAP0017 (MRSA)
Experimental: as §1, §2, §3

[4] = tested on: P. acnes; format: cell-based, Propionibacterium acnes
Experimental: as §2, §3

[5] = tested on: EpiDerm (EPI-200) skin tissue; assay: Skin tissue toxicity, EpiDerm skin model with MTT assay; format: cell-based; details: tissue viability (MTT), treated 20 hr
Experimental: 4. Skin tissue toxicity determination. Skin toxicity and compatibility was determined using EpiDerm (EPI-200) skin tissue and MTT Kit (MTT-100) (MatTek, Ashland, Mass.) according to the manufacture's instruction. 1% Triton X-100 and PBS were used as positive (toxic) and negative (non-toxic) control, respectively.
Potential for dermal irritancy of the lipodipeptides was tested using EpiDerm™ Skin Model (MatTek, Ashland, Mass.) in combination with a modified MTT assay. […] EpiDerm™ consists of organized basal, spinous, granular, and cornified layers analogous to those found in vivo. The tissues were treated with each compound at desired concentration for 20 hr.

[6] = tested on: S. aureus SAP0017 (MRSA); format: cell-based, Staphylococcus aureus; details: for logs of S. aureus eradicated in a kill assay: SAP0017
Experimental: as §3

[7] = tested on: P. acnes ATCC11827; assay: Kill kinetics in PBS; format: cell-based, Propionibacterium acnes; details: detection limit 10 CFU/ml
Experimental: as §3

[8] = tested on: histamine induced IL-6 expression; assay: Anti-inflammatory activity in keratinocytes (data not shown); format: cell-based; details: human skin keratinocytes
From the text: We modified both peptides via N-terminal acetylation with lipids of various lengths to the alpha amino group of KPV and KdPT.

[9] = tested on: C. albicans strain SC5314; details: Rauch et al. 2009; cited from earlier work
[10] = tested on: S. aureus and C. albicans; details: Cutuli et al. 2000, no MIC determined; cited from earlier work

Compound | MIC C. albicans [1] | MIC E. coli [2] | MIC S. aureus [3] | MIC P. acnes [4] | Toxicity EpiDerm [5] | logs of S. aureus eradicated in a kill assay [6] | other results
CC(C)[C@H](NC(=O)[C@@H]1CCCN1C(=O)[C@@H](N)CCCCN)C(N)=O [HB2068, KPV-NH2, reference compound] (H-Lys-Pro-Val-NH2) | >2000 µg/mL | >2000 µg/mL | >2000 µg/mL | >2000 µg/mL | >2000 µg/mL | – | –
CCCCCCCCCCCCCCCC(=O)N[C@@H](CCCCN)C(=O)N1CCC[C@@H]1C(=O)N[C@H](C(N)=O)[C@@H](C)O [HB2178, Pal-K-dPT-NH2] (Palmitoyl-Lys-[dP]-Thr-NH2) | 16 µg/mL (≈ 27.5 µM) | – | – | 2 µg/mL (≈ 3.44 µM) | >2000 µg/mL | 5-6 logs | survival of microbes (CFU/ml), 0 hr ([6]; S. aureus in PBS, 0 hr, detection limit 10 CFU/ml): 23050000 CFU/ml; survival of microbes (CFU/ml), 20 min ([6]; S. aureus in PBS, 20 min, detection limit 10 CFU/ml): <10 CFU/ml; survival of microbes (CFU/ml), 1 hr ([6]; S. aureus in PBS, 1 hr, detection limit 10 CFU/ml): <10 CFU/ml; survival of microbes (CFU/ml), 2 hr ([6]; S. aureus in PBS, 2 hr, detection limit 10 CFU/ml): <10 CFU/ml; survival of microbes (CFU/ml), 3 hr ([6]; S. aureus in PBS, 3 hr, detection limit 10 CFU/ml): <10 CFU/ml; survival of microbes (CFU/ml), 0 hr ([7]; 0 hr): 750000 CFU/ml; survival of microbes (CFU/ml), 20 min ([7]; 20 min): 20 CFU/ml; survival of microbes (CFU/ml), 1 hr ([7]; 1 hr): <10 CFU/ml; survival of microbes (CFU/ml), 2 hr ([7]; 2 hr): <10 CFU/ml; survival of microbes (CFU/ml), 3 hr ([7]; 3 hr): <10 CFU/ml
CCCCCCCCCCCCCCCC(=O)N[C@@H](CCCCN)C(=O)N1CCC[C@H]1C(=O)N[C@H](C(N)=O)C(C)C [HB2180, Pal-KPV-NH2] (Palmitoyl-Lys-Pro-Val-NH2) | 16 µg/mL (≈ 27.6 µM) | 128 µg/mL (≈ 221 µM) | 8 µg/mL (≈ 13.8 µM) | 1 to 2 µg/mL | >2000 µg/mL | 5-6 logs | –
CCCCCCCCCCCCCCCC(=O)N[C@@H](CCCCN)C(=O)N1CCC[C@H]1C(N)=O [HB2202, Pal-KP-NH2] (Palmitoyl-Lys-Pro-NH2) | 16 µg/mL (≈ 33.3 µM) | 64 µg/mL (≈ 133 µM) | 16 µg/mL (≈ 33.3 µM) | 1 µg/mL (≈ 2.08 µM) | >2000 µg/mL | – | –
CCCCCCCCCCCCCCCC(=O)N[C@@H](CCCCN)C(=O)N1CCC[C@H]1C(=O)N[C@@H](C)C(N)=O [HB2208, Pal-KPA-NH2] (Palmitoyl-Lys-Pro-Ala-NH2) | 16 µg/mL (≈ 29 µM) | 128 µg/mL (≈ 232 µM) | 16 µg/mL (≈ 29 µM) | 1 µg/mL (≈ 1.81 µM) | >2000 µg/mL | 5-6 logs | –
CCCCCCCCCCCCCCCC(=O)N[C@@H](CCCCN)C(=O)N1CCC[C@H]1C(=O)N[C@@H](CC(C)C)C(N)=O [HB2209, Pal-KPL-NH2] (Palmitoyl-Lys-Pro-Leu-NH2) | 32 µg/mL (≈ 53.9 µM) | >2000 µg/mL | 16 µg/mL (≈ 26.9 µM) | 4 to 8 µg/mL | >2000 µg/mL | 5-6 logs | –
NCCCC[C@H](N)C(=O)N1CCC[C@@H]1C(N)=O [HB2231, K-dP-NH2] (H-Lys-[dP]-NH2; N-terminus assumed) | >2000 µg/mL | >2000 µg/mL | >2000 µg/mL | >2000 µg/mL | – | – | anti-inflammatory activity against histamine induced IL-6 expression [8]: moderate anti-inflammatory activity
lysine-proline-valine [KPV] | – | – | – | – | – | – | concentration up to which yeast growth was not inhibited [9]: > 100 µM; antimicrobial activity in phosphate buffer [10]: antimicrobial activity

Further lines, with some results ahead:

MIC C. albicans [1] | MIC E. coli [2] | MIC S. aureus [3] | MIC P. acnes [4] | Compound | Toxicity EpiDerm [5] | logs of S. aureus eradicated in a kill assay [6] | other results
>2000 µg/mL | >2000 µg/mL | >2000 µg/mL | >2000 µg/mL | C[C@@H](O)[C@H](NC(=O)[C@H]1CCCN1C(=O)[C@@H](N)CCCCN)C(N)=O [HB2089, K-dPT-NH2, reference compound] (H-Lys-[dP]-Thr-NH2) | >2000 µg/mL | – | –
>2000 µg/mL | >2000 µg/mL | >2000 µg/mL | >2000 µg/mL | C[C@@H](O)[C@H](NC(=O)[C@H]1CCCN1C(=O)[C@@H](N)CCCCN)C(=O)O [HB2090, K-dPT-OH, reference compound] (H-Lys-[dP]-Thr-OH) | >2000 µg/mL | – | –
16 µg/mL (≈ 33.3 µM) | 128 µg/mL (≈ 266 µM) | 8 µg/mL (≈ 16.6 µM) | 1 to 2 µg/mL | CCCCCCCCCCCCCCCC(=O)N[C@@H](CCCCN)C(=O)N1CCC[C@@H]1C(N)=O [HB2203, Pal-K-dP-NH2] (Palmitoyl-Lys-[dP]-NH2) | >2000 µg/mL | – | –
>2000 µg/mL | >2000 µg/mL | >2000 µg/mL | >2000 µg/mL | NCCCC[C@H](N)C(=O)N1CCC[C@H]1C(N)=O [HB2230, KP-NH2] (H-Lys-Pro-NH2; N-terminus assumed) | – | – | anti-inflammatory activity against histamine induced IL-6 expression [8]: moderate anti-inflammatory activity
